Test results reported in patent US7307079B2, “1,3,5-Triazine derivatives as ligands for human adenosine-A3 receptors” (Solvay Pharmaceuticals, B.V., priority 2002, dated 2007).

Molecular target: T1, human adenosine-A3 receptor (Homo sapiens, UniProt P0DMS8)
T1 construct: expressed in transfected cells; membrane preparations
T1 sequence (P0DMS8 1-318): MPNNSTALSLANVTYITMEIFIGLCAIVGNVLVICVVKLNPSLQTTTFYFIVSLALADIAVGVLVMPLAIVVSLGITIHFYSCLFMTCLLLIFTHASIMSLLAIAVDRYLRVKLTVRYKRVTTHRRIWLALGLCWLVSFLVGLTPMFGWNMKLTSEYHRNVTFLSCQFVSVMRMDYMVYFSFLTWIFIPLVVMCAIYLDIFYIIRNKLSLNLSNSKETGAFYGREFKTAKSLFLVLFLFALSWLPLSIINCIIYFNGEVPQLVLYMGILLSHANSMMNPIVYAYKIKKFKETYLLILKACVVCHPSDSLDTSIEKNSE
Test: Receptor binding to human adenosine-A3 receptors ([125I]-AB-MECA displacement, HEK 293 membranes)
Experimental: Receptor Binding to Human Adenosine-A3 Receptors
Affinity of the compounds for human adenosine-A3 receptors was determined using the receptor binding assay described by C. A. Salvatore et al.: Molecular cloning and characterization of the human A3 adenosine receptor, Proc. Natl. Acad. Sci. USA, 90, 10365-10369, 1993. Briefly, membrane preparations were obtained from human recombinant (HEK 293) cells in which the human adenosine-A3 receptor was stably expressed. Membranes were incubated at 22° C. for 90 minutes with [^125l]-AB-MECA in the absence or presence of testcompounds in a concentration range from 10 μM down to 0.1 nM, diluted in a suitable buffer. Separation of bound radioactivity from free was done by filtration through Packard GF/B glass fiber filters with several washings with ice-cold buffer using a Packard cell harvester. Bound radioactivity was measured with a scintillation counter (Topcount, Packard) using a liquid scintillation cocktail (Microscint 0, Packard). Measured radioactivity was plotted against the concentration of the displacing test compound and displacement curves were calculated by four-parameter logistic regression, resulting in IC50 values, i.e. that concentration of displacing compound by which 50% of the radioligand is displaced. […]

C[C@@H](Nc1nc(Cl)nc(Nc2ccc3c(c2)OCO3)n1)[C@@H](O)c1ccccc1 [formula (9), (1S,2R)-2-{[4-chloro-6-(3,4-methylenedioxy-phenylamino)-[1,3,5]triazin-2-yl]-amino}-1-phenyl-propan-1-ol]
Ki ([125I]-AB-MECA, membranes of HEK 293 cells expressing human A3, 22° C., 90 minutes, read-out: affinity for human adenosine-A3 receptors pKi (converted)): 1 nM
affinity for human adenosine-A3 receptors (in words) (binding assay, result stated in words): highly active
